Columns and labels:
Settings in all cases: 2 μM, 24 h
hGLP = target: T1, hGLP (Homo sapiens, UniProt Q9H9B1); test: Methylation of HA-hGLP in Cos-7 cells (pan met-K immunoprecipitation/immunoblot); type: cell-based, African green monkey
T1 construct: expressed in transfected cells; host or cells: Cos-7
Method: Cos-7 or A549 cells were seeded on 10-cm dishes the day before transfection. Cells were transiently transfected (where indicated) using Lipofectamine 2000 (Invitrogen) with 5 μg each of the indicated plasmids according to the manufacturer's protocol. […] Protein extracts were incubated with 1 μg of the indicated primary antibodies overnight at 4° C. with shaking. Protein A/G Plus Agarose (Santa Cruz sc-2003) beads were added and the mixture was incubated 2 hr at 4° C. The immunoprecipitates were separated on SDS-PAGE. […] In immunoprecipitation experiments 3% of the input of each sample was analyzed by immunoblot using the antibodies listed. […]

endogenous G9a and GLP = target: T2, endogenous G9a and GLP (Homo sapiens, UniProt Q96KQ7+Q9H9B1); test: Methylation of endogenous G9a and GLP in A549 cells; type: cell-based
T2 construct: highlight methylation of endogenous G9a and GLP in A549 cells; endogenous in cells; host or cells: A549
Method: (§1) Cos-7 or A549 cells were seeded on 10-cm dishes the day before transfection. Cells were transiently transfected (where indicated) using Lipofectamine 2000 (Invitrogen) with 5 μg each of the indicated plasmids according to the manufacturer's protocol. At 48 h after transfection, cells were treated (or not) with dex for the indicated time period, and cell extracts were prepared in RIPA buffer (50 mM Tris-HCl, pH 8, 150 mM NaCl, 1 mM EDTA, 1% NP-40 and 0.25% deoxycholate) supplemented with protease inhibitor tablets (Roche Molecular Biochemicals) and phosphatase inhibitors (1 mM NaF, 1 mM Na3VO4 and 1 mM β-glycerophosphate). Protein extracts were incubated with 1 μg of the indicated primary antibodies overnight at 4° C. with shaking. Protein A/G Plus Agarose (Santa Cruz sc-2003) beads were added and the mixture was incubated 2 hr at 4° C. The immunoprecipitates were separated on SDS-PAGE. […] In immunoprecipitation experiments 3% of the input of each sample was analyzed by immunoblot using the antibodies listed.
The results as shown in FIGS. 24E-1 and 24E-2 highlight methylation of endogenous G9a and GLP in A549 cells. […] Western-Blot quantification was determined relative to input using ChemiDoc MP (Biorad) to measure chemiluminescence from the immunoblots, and the ratio of the IP signal to the input signal was calculated for each sample.

[1] = test system: phosphorylation of GR or HP1γ; test: Immunoblot of GR and HP1γ phosphorylation in A549 cells; type: cell-based, human
Method: as §1
102371 Aurora kinase B inhibition has no effect of phosphorylation of GR or HP1γ as highlighted in the results as shown in FIG. 27E. […] Whole-cell extracts were analyzed with the listed antibodies by immunoblot.

T1 sequence (Q9H9B1 whole entry): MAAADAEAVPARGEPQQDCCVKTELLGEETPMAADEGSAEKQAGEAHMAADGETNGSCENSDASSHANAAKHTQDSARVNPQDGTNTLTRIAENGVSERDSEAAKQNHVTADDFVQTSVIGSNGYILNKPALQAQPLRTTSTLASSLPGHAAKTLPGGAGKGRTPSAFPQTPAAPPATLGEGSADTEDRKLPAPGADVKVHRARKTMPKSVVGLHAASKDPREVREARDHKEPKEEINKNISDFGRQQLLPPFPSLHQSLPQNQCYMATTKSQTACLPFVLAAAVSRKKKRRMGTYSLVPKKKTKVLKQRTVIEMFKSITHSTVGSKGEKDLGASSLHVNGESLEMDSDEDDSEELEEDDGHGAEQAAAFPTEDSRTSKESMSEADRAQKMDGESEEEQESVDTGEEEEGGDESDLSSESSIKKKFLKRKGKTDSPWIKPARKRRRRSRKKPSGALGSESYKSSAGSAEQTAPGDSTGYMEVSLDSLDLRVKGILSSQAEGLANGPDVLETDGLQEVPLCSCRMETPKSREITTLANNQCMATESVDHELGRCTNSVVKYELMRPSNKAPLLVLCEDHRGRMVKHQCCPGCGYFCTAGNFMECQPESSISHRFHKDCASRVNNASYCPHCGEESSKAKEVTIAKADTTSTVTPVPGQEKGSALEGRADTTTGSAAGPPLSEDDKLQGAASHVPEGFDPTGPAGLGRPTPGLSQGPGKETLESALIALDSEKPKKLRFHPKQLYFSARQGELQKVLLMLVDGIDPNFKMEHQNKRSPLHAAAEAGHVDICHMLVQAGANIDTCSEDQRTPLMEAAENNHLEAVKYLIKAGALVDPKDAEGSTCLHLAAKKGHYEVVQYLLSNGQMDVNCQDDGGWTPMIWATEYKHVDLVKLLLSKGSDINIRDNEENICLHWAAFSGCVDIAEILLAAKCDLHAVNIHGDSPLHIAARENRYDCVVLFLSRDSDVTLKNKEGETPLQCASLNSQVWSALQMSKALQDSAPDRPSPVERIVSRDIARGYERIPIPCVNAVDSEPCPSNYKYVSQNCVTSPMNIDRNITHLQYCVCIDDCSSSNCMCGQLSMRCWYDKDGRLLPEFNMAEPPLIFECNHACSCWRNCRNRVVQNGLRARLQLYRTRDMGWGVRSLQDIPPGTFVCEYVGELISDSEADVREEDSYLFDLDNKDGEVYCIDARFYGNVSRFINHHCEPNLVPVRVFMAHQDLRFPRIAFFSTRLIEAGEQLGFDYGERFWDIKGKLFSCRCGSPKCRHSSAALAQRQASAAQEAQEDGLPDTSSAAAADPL

COc1cc2c(NC3CCN(C4CCCCC4)CC3)nc(N3CCCN(C(C)C)CC3)nc2cc1OCCCN1CCCCC1 [UNC0646]
GLP methylation in cells (hGLP): reduced
endogenous level of G9a and GLP (endogenous G9a and GLP): increased
proportion of G9a and GLP that was methylated (endogenous G9a and GLP): decreased substantially

COc1cc2c(Nc3ccc(NC(=O)c4ccccc4)cc3)ncnc2cc1OCCCN1CCOCC1 [ZM447439, N-[4-[[6-methoxy-7-(3-morpholin-4-ylpropoxy)quinazolin-4-yl]amino]phenyl]benzamide]
phosphorylation of GR or HP1γ [1]: no effect

From patent publication US20200181284A1, “EPIGENETIC INHIBITORS FOR SENSITIZING HEMATOLOGIC OR OTHER MALIGNANCIES TO GLUCOCORTICOID THERAPY” (UNIVERSITY OF SOUTHERN CALIFORNIA, priority 2017, published 2020)
